Columns and labels:
[1] = test system: rat; test: Formalin test in the rat; assay type: in vivo, Sprague Dawley rats; details: phase II (21-27 min after formalin administration)
Method: The formalin test (Dubuisson, D. and Dennis, S. G., 1977, Pain, 4, 161-174) is a model for acute and chronic pain. In the tests described here, the chronic pain component (phase II of the formalin test; time interval 21-27 min after formalin administration) was analysed.
A single formalin injection into the dorsal side of one rear paw was used to induce a biphase nociceptive response in experimental animals allowed to move freely, and the response was recorded by observation of three clearly distinguishable behaviour patterns.
Formalin is administered subcutaneously in a volume of 50 μl and a concentration of 5% into the dorsal side of the right rear paw of each animal. The vehicle and the substances to be tested are administered intravenously 5 minutes before or orally 30 minutes before the formalin injection.
The specific behavioural changes, such as lifting and shaking the paw, shifting of weight by the animal and biting and licking responses, are observed and recorded continuously for 60 minutes after formalin administration. The behavioural changes are weighted differently (score 0-3) and a pain rate (PR) calculated using the formula below: PR=[(T0×0)+(T1×1)+(T2×2)+(T3×3)/180.
Sprague Dawley rats (Janvier, Belgium) are used as the phylum. The weight of the animals is between 180 and 200 g. The group size was n=10.

[2] = target: T1, hKCNQ2/3 (Homo sapiens, UniProt O43525+O43526); test: Voltage-clamp (patch-clamp) measurements on stably transfected hKCNQ2/3 CHO-K1 cell line; assay type: cell-based; set-up: expressed in transfected cells; host or cells: CHO-K1 (stably transfected); details: 10 μM test substance at −40 mV, current increase normalised against retigabine (10 μM), read-out: Patch-clamp % Efficacy @ 10 μM (Retigabine = 100%)
Method: Voltage-Clamp Measurements
In order to confirm a KCNQ2/3 agonistic action of the substances electrophysiologically, patch-clamp measurements (Hamill O P, Marty A, Neher E, Sakmann B, Sigworth F J: Improved patch-clamp techniques for high-resolution current recording from cells and cell-free membrane patches, Pfluger's Arch. 1981 August; 391(2):85-100) were performed in voltage-clamp mode on a stably transfected hKCNQ2/3 CHO-K1 cell line. After formation of the gigaseal the cells were first clamped at a holding potential of −60 mV. Depolarising voltage jumps up to a potential of +20 mV were then applied (increment: 20 mV, duration: 1 second) in order to confirm the functional expression of KCNQ2/3-typical currents. The substances were tested at a potential of −40 mV. First of all the current increase induced by retigabine (10 μM) at −40 mV was recorded on each cell as a positive control. After completely washing out the retigabine effect (duration: 80 s) the test substance (10 μM) was applied. The current increase induced by the test substance was normalised against the retigabine effect and stated as the relative efficacy (see below).

[3] = target: T1, hKCNQ2/3; test: Fluorescence assay using a voltage-sensitive dye (fluorimetry); assay type: cell-based; set-up: expressed in transfected cells; host or cells: CHO-K1; details: CHO-K1 cells expressing KCNQ2/3; for Emax at 10 µM / Emax at 1 µM: relative to retigabine = 100%; for Emax at 10 µM: read-out: Fluorimetry % Efficacy @ 10 μM (Retigabine = 100%); for Emax at 1 µM: read-out: Fluorimetry % Efficacy @ 1 μM (Retigabine = 100%)
Method: Pharmacological Experiments Fluorescence Assay Using a Voltage-Sensitive Dye
Human CHO-K1 cells expressing KCNQ2/3 channels are cultivated adherently at 37° C., 5% CO2 and 95% humidity in cell culture bottles (e.g. 80 cm^2 TC flasks, Nunc) with DMEM-high glucose (Sigma Aldrich, D7777) including 10% FCS (PAN Biotech, e.g. 3302-P270521) or alternatively MEM Alpha Medium (1×, liquid, Invitrogen, #22571), 10% foetal calf serum (FCS) (Invitrogen, #10270-106, heat-inactivated) and the necessary selection antibiotics.
Before being sown out for the measurements, the cells are washed with a 1×DPBS buffer without Ca^2+/Mg^2+ (e.g. Invitrogen, #14190-094) and detached from the bottom of the culture vessel by means of Accutase (PAA Laboratories, #L11-007) (incubation with Accutase for 15 min at 37° C.). The cell count then present is determined using a CASY™ cell counter (TCC model, Scharfe System) in order subsequently to apply 20,000 to 30,000 cells/well/100 μl of the described nutrient medium, depending on density optimisation for the individual cell line, to 96-well measuring plates of the Corning™ CeIIBIND™ type (flat clear-bottom black polystyrene microplates, #3340).
Incubation is then carried out for one hour at room temperature, without gassing or adjusting the humidity, followed by incubation for 24 hours at 37° C., 5% CO2 and 95% humidity.
The voltage-sensitive fluorescent dye from the Membrane Potential Assay Kit (Red™ bulk format part R8123 for FLIPR, MDS Analytical Technologies™) is prepared by dissolving the contents of a vessel of Membrane Potential Assay Kit Red Component A in 200 ml of extracellular buffer (ES buffer, 120 mM NaCl, 1 mM KCl, 10 mM HEPES, 2 mM CaCl2, 2 mM MgCl2, 10 mM glucose; pH 7.4). After removal of the nutrient medium, the cells are washed with 200 μl of ES buffer, then covered with a layer of 100 μl of the dye solution prepared above and incubated for 45 min at room temperature with exclusion of light.
The fluorescence measurements are carried out with a BMG Labtech FLUOstar™ BMG Labtech NOVOstar™ or BMG Labtech POLARstar™ instrument (525 nm excitation, 560 nm emission, bottom-read mode). After incubation of the dye, 50 μl of the substances to be tested in the desired concentrations, or 50 μl of ES buffer for control purposes, are introduced into separate cavities of the measuring plate and incubated for 30 min at room temperature whilst being shielded from light. The fluorescence intensity of the dye is then measured for 5 min and the fluorescence value F1 of each well is thus determined at a given, constant time. 15 μl of a […] KCl solution ([…]) are then added to each well. The change in fluorescence is subsequently measured until all relevant measured values have been obtained (mainly 5-30 min). At a given time after KCl application, a fluorescence value F2 is determined, in this case at the time of the fluorescence peak.
For calculation, the fluorescence intensity F2 is compared with the fluorescence intensity F1, and the agonistic activity of the target compound on the potassium channel is determined therefrom. F2 and F1 are calculated as follows: […]
In order to determine whether a substance has an agonistic activity,
[formula] for example, can be compared with
[formula] of control cells.
[formula] is determined by adding to the reaction batch only the buffer solution instead of the substance to be tested, determining the value F1K of the fluorescence intensity, adding the potassium ions as described above and measuring a value F2K of the fluorescence intensity. Then F2K and F1K are calculated as follows: […]
A substance has an agonistic activity on the potassium channel if
[formula] is greater than
Independently of the comparison of
[formula] it is also possible to conclude that a target compound has an agonistic activity if an increase in
[formula] is to be observed as the dosage of the target compound increases. […]

T1 sequence (O43526 whole entry): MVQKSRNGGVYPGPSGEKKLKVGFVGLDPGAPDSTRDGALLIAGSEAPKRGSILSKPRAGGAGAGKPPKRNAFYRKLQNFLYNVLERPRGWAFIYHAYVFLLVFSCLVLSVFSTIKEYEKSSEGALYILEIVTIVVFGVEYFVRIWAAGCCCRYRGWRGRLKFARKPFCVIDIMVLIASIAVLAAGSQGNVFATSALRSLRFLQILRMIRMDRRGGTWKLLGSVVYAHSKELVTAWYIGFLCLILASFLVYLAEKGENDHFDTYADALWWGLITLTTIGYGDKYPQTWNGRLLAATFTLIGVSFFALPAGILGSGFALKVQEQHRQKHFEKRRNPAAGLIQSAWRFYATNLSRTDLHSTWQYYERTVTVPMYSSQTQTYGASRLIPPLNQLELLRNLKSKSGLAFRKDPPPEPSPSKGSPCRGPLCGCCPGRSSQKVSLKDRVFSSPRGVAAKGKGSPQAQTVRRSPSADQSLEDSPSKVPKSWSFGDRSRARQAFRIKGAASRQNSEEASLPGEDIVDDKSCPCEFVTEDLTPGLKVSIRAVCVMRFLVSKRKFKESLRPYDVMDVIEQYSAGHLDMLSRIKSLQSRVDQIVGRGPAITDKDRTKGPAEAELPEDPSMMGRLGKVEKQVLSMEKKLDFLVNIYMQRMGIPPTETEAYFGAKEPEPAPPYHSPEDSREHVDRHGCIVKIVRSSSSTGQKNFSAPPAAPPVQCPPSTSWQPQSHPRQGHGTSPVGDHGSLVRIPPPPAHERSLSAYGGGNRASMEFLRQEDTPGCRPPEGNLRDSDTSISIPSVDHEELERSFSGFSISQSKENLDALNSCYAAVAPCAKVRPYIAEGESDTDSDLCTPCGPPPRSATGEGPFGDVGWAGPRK
T1 sequence (O43525 whole entry): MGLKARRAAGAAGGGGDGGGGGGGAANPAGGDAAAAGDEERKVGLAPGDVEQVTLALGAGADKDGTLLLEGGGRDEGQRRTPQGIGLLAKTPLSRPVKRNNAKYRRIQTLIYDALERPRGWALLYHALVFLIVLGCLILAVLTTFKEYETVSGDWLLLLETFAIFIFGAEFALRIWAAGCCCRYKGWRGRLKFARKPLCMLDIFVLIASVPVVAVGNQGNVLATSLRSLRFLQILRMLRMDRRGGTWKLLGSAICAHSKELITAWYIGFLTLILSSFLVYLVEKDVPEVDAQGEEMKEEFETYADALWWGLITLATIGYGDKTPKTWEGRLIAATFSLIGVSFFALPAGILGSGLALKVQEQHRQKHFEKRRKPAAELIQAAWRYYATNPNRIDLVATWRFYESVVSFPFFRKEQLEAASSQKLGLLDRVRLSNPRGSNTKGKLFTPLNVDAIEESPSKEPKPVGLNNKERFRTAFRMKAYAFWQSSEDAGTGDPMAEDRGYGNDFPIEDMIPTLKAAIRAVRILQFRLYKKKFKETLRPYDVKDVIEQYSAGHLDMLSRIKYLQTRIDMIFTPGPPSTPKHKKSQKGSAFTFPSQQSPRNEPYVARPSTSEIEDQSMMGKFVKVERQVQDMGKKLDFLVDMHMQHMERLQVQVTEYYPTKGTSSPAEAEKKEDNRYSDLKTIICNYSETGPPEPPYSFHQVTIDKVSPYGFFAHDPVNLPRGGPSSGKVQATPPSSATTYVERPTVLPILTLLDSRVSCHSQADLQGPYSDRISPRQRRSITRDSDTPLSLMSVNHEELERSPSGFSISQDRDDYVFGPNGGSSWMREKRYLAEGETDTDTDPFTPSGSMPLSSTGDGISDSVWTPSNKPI

Emax at 10 µM [2]	Emax at 10 µM [3]	EC50 [3]	Emax at 1 µM [3]	SMILES	Formalin test rat i.v. @ 4.64 mg/kg % Reduction of nociceptive behaviour [1]
78%	110%	1900 nM	–	O=C(CCC(=O)N1CCc2ccccc2C1c1ccccc1)NCc1cccc(C(F)(F)F)c1 (stereo not drawn) [Example compound 1, 4-Oxo-4-(1-phenyl-3,4-dihydroisoquinolin-2(1H)-yl)-N-(3-(trifluoromethyl)benzyl)butyric acid amide]	40%
17%	–	10400 nM	–	CC1c2ccccc2CCN1C(=O)CCC(=O)NCc1cccc(C(F)(F)F)c1 (stereo not drawn) [Example compound 2, 4-(1-Methyl-3,4-dihydro-1H-isoquinolin-2-yl)-4-oxo-N-[[3-(trifluoromethyl)phenyl]methyl]butyric acid amide]	–
–	–	–	–	O=C(CCC(=O)N1CCn2cccc2C1c1ccccc1)NCc1cccc(C(F)(F)F)c1 (stereo not drawn) [Example no. 2 in WO2008/046582, reference compound]	No effect
–	134%	1050 nM	76%	O=C(CCC(=O)N1CCc2ccccc2C1c1cccs1)NCc1cccc(C(F)(F)F)c1 (stereo not drawn) [Example compound 3, 4-Oxo-4-(1-thien-2-yl-3,4-dihydroisoquinolin-2(1H)-yl)-N-(3-(trifluoromethyl)benzyl)butyric acid amide]	–
–	–	158 nM	67%	Cc1ccccc1C1c2ccccc2CCN1C(=O)CCC(=O)NCc1ccccc1C(F)(F)F (stereo not drawn) [Example compound 69, 4-Oxo-4-(1-(2-tolyl)-3,4-dihydro-1H-isoquinolin-2-yl)-N-[[2-(trifluoromethyl)-phenyl]methyl]butyric acid amide]	–
